Publication PMC5564600 (Oncotarget, 2017)

Columns and labels:
Test in all cases: biochemical
Format in all cases: binding
panel of 442 kinases [1] = target: T1, panel of 442 kinases (Homo sapiens, UniProt P68400); settings: CSNK2A1; for remaining activity at 1 µM: read-out: % of control at 1 µM
T1 construct: purchased Ambit Biosciences (scanMAXX KINOMEscan)

panel of 442 kinases [2] = target: T2, panel of 442 kinases (Homo sapiens, UniProt P48730); settings: CSNK1D; for remaining activity at 1 µM: read-out: % of control at 1 µM
T2 construct: purchased Ambit Biosciences (scanMAXX KINOMEscan)
T2 sequence (P48730 whole entry): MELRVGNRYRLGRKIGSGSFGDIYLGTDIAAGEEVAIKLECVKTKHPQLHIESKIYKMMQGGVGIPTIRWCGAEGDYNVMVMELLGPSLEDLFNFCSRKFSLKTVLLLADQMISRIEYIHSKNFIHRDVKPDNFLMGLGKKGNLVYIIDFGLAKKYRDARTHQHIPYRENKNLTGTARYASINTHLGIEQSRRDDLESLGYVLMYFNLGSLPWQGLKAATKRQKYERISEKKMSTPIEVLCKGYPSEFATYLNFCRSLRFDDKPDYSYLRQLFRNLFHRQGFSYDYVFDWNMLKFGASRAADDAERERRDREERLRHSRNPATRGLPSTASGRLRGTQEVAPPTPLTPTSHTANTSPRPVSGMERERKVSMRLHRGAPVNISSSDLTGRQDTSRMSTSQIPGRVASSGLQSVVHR

panel of 442 kinases [3] = target: T3, panel of 442 kinases (Homo sapiens, UniProt Q7KZI7); settings: kinase MARK2; for remaining activity at 1 µM: read-out: % of control at 1 µM
T3 construct: purchased Ambit Biosciences (scanMAXX KINOMEscan)
T3 sequence (Q7KZI7 whole entry): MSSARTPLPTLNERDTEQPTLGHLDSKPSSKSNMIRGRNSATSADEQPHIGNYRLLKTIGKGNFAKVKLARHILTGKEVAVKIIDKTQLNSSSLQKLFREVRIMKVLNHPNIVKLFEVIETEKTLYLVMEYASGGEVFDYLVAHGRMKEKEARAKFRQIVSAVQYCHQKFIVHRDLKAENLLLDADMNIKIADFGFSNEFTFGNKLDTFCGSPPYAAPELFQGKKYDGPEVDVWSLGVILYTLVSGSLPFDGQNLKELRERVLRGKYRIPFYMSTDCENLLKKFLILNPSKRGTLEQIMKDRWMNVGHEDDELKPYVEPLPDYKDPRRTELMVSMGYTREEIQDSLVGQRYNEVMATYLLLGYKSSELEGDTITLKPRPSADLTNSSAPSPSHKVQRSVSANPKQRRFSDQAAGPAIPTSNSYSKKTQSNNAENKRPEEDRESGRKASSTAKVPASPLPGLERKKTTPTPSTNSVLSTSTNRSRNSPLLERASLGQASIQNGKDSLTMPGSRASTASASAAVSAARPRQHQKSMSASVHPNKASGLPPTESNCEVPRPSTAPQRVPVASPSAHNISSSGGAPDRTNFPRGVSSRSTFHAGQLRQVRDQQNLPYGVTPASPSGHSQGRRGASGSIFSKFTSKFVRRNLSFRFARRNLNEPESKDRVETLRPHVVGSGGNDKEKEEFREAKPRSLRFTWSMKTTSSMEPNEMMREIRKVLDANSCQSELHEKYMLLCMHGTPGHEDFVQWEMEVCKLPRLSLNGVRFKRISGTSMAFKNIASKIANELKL

panel of 442 kinases [4] = target: T4, panel of 442 kinases (Homo sapiens, UniProt Q13546); settings: kinase RIPK1; for remaining activity at 1 µM: read-out: RIPK1 (% of control at 1 µM)
T4 construct: purchased Ambit Biosciences (scanMAXX KINOMEscan)
T4 sequence (Q13546 1-671): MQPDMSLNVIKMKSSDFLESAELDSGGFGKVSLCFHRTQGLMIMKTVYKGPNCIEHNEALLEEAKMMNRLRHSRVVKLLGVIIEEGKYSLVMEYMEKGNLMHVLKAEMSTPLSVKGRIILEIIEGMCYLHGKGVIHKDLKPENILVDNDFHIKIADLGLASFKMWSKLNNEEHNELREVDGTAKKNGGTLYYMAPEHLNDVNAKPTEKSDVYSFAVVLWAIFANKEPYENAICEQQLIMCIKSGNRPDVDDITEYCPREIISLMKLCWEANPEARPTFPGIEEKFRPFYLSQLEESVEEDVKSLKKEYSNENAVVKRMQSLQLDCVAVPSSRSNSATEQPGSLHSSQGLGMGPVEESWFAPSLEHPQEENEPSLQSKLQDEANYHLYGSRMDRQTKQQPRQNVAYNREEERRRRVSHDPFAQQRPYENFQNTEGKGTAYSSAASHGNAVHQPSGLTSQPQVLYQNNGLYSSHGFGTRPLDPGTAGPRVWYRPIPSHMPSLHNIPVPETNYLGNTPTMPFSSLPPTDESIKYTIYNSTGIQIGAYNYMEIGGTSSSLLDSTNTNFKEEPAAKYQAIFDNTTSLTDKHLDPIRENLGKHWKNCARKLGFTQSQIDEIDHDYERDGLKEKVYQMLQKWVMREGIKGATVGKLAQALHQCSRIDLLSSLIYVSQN

panel of 442 kinases [5] = target: T5, panel of 442 kinases (Homo sapiens, UniProt O15197); settings: EPHB6; for remaining activity at 1 µM: read-out: % of control at 1 µM
T5 construct: purchased Ambit Biosciences (scanMAXX KINOMEscan)
T5 sequence (O15197 32-1021): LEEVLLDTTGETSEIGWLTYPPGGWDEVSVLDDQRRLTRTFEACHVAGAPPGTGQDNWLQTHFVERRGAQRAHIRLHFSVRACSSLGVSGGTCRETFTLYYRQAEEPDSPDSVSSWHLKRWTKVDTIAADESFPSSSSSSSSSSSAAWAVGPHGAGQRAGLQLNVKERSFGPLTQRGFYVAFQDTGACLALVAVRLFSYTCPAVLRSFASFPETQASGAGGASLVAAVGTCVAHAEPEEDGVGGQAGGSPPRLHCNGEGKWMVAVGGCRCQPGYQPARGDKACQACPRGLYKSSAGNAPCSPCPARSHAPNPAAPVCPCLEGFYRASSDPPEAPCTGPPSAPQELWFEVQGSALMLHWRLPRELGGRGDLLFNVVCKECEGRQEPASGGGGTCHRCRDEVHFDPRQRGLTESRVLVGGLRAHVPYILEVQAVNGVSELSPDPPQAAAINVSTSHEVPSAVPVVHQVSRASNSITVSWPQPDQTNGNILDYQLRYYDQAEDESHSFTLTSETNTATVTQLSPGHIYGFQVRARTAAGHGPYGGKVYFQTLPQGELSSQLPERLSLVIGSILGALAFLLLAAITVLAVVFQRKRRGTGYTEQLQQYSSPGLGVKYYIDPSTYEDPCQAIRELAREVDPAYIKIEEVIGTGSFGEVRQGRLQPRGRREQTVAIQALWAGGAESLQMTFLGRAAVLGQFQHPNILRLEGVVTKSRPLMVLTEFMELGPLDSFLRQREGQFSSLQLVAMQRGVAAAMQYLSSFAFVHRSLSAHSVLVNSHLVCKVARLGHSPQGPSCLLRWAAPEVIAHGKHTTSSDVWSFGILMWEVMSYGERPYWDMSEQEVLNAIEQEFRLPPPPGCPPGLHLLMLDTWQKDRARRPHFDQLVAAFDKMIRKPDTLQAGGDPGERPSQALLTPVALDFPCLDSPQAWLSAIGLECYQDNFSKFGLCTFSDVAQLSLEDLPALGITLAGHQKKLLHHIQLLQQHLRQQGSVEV

panel of 442 kinases [6] = target: T6, panel of 442 kinases (Homo sapiens, UniProt Q8IWQ3); settings: BRSK2; for remaining activity at 1 µM: read-out: % of control at 1 µM
T6 construct: purchased Ambit Biosciences (scanMAXX KINOMEscan)
T6 sequence (Q8IWQ3 1-736): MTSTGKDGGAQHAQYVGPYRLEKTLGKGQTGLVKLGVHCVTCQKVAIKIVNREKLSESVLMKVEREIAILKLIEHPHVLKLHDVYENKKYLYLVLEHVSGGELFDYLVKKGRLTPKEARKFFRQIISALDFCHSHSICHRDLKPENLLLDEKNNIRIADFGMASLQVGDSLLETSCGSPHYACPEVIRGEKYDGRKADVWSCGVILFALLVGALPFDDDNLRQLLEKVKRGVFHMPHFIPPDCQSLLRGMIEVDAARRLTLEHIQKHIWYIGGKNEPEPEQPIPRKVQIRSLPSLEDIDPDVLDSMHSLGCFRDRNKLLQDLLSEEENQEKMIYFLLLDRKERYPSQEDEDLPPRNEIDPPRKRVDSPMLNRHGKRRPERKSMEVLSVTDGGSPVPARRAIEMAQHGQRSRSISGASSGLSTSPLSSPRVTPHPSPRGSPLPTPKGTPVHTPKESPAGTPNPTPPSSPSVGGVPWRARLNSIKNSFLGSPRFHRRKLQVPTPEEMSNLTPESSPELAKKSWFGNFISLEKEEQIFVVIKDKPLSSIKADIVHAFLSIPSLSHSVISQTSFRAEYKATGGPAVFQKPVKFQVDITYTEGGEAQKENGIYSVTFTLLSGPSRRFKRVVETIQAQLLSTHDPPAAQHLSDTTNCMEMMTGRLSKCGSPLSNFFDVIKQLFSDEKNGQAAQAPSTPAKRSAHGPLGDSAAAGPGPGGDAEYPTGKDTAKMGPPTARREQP

panel of 442 kinases [7] = target: T7, panel of 442 kinases (Homo sapiens, UniProt Q05397); settings: FAK; for remaining activity at 1 µM: read-out: % of control at 1 µM
T7 construct: purchased Ambit Biosciences (scanMAXX KINOMEscan)
T7 sequence (Q05397 whole entry): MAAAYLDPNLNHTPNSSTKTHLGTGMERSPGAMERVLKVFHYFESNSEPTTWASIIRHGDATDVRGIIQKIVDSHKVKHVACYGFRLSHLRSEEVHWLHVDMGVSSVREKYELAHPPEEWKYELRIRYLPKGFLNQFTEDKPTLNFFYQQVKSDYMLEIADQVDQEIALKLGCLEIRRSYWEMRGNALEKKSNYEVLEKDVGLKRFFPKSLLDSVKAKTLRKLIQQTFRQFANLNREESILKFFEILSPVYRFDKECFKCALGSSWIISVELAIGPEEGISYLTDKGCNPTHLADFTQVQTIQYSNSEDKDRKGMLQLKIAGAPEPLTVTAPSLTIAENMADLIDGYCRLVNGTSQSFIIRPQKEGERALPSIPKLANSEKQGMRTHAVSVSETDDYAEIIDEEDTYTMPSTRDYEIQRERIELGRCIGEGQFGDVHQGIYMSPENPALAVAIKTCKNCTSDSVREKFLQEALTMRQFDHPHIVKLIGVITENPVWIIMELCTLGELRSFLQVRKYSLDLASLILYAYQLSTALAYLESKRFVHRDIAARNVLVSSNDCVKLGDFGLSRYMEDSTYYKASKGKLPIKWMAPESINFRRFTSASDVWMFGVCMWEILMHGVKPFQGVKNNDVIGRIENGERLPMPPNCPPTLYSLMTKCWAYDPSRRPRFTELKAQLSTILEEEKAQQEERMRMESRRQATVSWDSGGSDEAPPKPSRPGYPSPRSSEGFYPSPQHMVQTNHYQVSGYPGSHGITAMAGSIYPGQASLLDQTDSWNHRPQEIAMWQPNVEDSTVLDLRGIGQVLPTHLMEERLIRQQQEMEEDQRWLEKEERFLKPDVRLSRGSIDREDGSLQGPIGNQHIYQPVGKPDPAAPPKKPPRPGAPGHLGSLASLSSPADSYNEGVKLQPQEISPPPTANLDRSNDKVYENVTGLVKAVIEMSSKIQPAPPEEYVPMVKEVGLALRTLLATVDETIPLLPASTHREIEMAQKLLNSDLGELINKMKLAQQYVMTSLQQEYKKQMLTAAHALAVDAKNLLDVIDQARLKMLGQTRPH

[8] = 10 µM, read-out: % of control at 10 µM

T1 sequence (P68400 whole entry): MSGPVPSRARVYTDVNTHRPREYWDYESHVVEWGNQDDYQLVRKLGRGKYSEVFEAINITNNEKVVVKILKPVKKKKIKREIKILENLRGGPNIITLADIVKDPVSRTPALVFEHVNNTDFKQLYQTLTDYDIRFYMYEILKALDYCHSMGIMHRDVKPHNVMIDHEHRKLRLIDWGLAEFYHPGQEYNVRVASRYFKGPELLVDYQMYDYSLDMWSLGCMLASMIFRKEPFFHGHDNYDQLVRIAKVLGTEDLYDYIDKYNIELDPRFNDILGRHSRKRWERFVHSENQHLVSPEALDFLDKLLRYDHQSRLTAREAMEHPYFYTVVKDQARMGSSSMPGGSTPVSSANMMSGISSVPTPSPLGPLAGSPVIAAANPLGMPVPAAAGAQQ

Nc1cc(C(F)(F)F)c(-c2cc(N3CCOCC3)nc(N3CCOCC3)n2)cn1 [Buparlisib]
remaining activity at 1 µM (panel of 442 kinases [1]): 91%
remaining activity at 10 µM (panel of 442 kinases [1]; [8]): 100%
remaining activity at 1 µM (panel of 442 kinases [2]): 92%
remaining activity at 10 µM (panel of 442 kinases [2]; [8]): 75%
remaining activity at 1 µM (panel of 442 kinases [3]): 100%
remaining activity at 10 µM (panel of 442 kinases [3]; [8]): 71%
remaining activity at 1 µM (panel of 442 kinases [4]): 100%
remaining activity at 10 µM (panel of 442 kinases [4]; 10 µM, read-out: RIPK1 (% of control at 10 µM)): 100%
remaining activity at 1 µM (panel of 442 kinases [5]): 76%
remaining activity at 10 µM (panel of 442 kinases [5]; [8]): 89%
remaining activity at 1 µM (panel of 442 kinases [6]): 100%
remaining activity at 10 µM (panel of 442 kinases [6]; [8]): 100%
remaining activity at 1 µM (panel of 442 kinases [7]): 100%
remaining activity at 10 µM (panel of 442 kinases [7]; [8]): 100%

Cn1c(=O)n(-c2ccc(C(C)(C)C#N)cc2)c2c3cc(-c4cnc5ccccc5c4)ccc3ncc21 [Dactolisib, 2-methyl-2-[4-(3-methyl-2-oxo-8-quinolin-3-yl-2,3-dihydroimidazo[4,5-c]quinolin-1-yl)-phenyl] propionitrile]
remaining activity at 1 µM (panel of 442 kinases [1]): 64%
remaining activity at 1 µM (panel of 442 kinases [2]): 76%
remaining activity at 1 µM (panel of 442 kinases [3]): 65%
remaining activity at 1 µM (panel of 442 kinases [4]): 91%
remaining activity at 1 µM (panel of 442 kinases [5]): 100%
remaining activity at 1 µM (panel of 442 kinases [6]): 91%
remaining activity at 1 µM (panel of 442 kinases [7]): 90%

COc1ncc(-c2ccc3nccc(-c4ccnnc4)c3c2)cc1NS(=O)(=O)c1ccc(F)cc1F [Omipalisib]
remaining activity at 1 µM (panel of 442 kinases [1]): 100%
remaining activity at 1 µM (panel of 442 kinases [2]): 100%
remaining activity at 1 µM (panel of 442 kinases [3]): 100%
remaining activity at 1 µM (panel of 442 kinases [4]): 78%
remaining activity at 1 µM (panel of 442 kinases [5]): 57%
remaining activity at 1 µM (panel of 442 kinases [6]): 95%
remaining activity at 1 µM (panel of 442 kinases [7]): 94%

FC(F)c1nc2ccccc2n1-c1nc(N2CCOCC2)nc(N2CCOCC2)n1 [ZSTK474, 2-(difluoromethyl)-1-[4,6-di(4-morpholinyl)-1,3,5-triazin-2-yl]-1H-benzimidazole]
remaining activity at 1 µM (panel of 442 kinases [1]): 90%
remaining activity at 1 µM (panel of 442 kinases [2]): 67%
remaining activity at 1 µM (panel of 442 kinases [3]): 57%
remaining activity at 1 µM (panel of 442 kinases [4]): 98%
remaining activity at 1 µM (panel of 442 kinases [5]): 100%
remaining activity at 1 µM (panel of 442 kinases [6]): 100%
remaining activity at 1 µM (panel of 442 kinases [7]): 90%
